Experimental data as given in paper PMC10412585 (Nature Communications, 2023).
“Also recorded” adds a separate entry of the source.

How the values were obtained:
NKG2C+ NK cells = experiment: NK cell activation assay with peptide-pulsed RMA-S/HLA-E cells; format: cell-based, human
Experimental: (§1) Fig. 4 NK cell stimulation assays. Assessment of effects of peptides on NK cell activity through incubation of NK cells, peptides, and (A) K562/HLA-E or (B) RMA-S/HLA-E target cells. […] Replicates for individual peptides are from different donors, with solid black lines indicating mean values. […] Representative gating for NKG2A^+/NKG2C^- and NKG2A^-/NKG2C^+ NK cells is shown in Supplemental Fig. 14. Source data are provided as a Source Data file.
In contrast to K562 cell lines which are targets for human NK cells, RMA-S cells (a TAP-deficient mouse cell line)[48] are inert to human NK cells and thus will not activate NK cells absent engagement of an activating receptor on the NK cells. […] We performed additional NK cell activation assays with RMA-S/HLA-E cells (Fig. 4B).
(§2) All analyses of human data were carried out in compliance with the relevant ethical regulations. Healthy blood donors gave informed consent at DRK Blutspendedienst Nord-Ost, Dresden, Germany, and buffy coats were obtained as approved by Charité ethics committee (EA4/059/17). PBMCs were isolated from human CMV-seropositive buffy coats by density centrifugation over Ficoll Paque Plus (GE Healthcare) and screened for the presence of NKG2C^+ NK cell expansions by flow cytometry to have sufficient frequencies of single-positive cells for parallel assessment of activation and inhibition via HLA-E[47]. Total NK cells from donors with NKG2C^+ expansions (>10% NKG2A^-/NKG2C^+ NK cells) were enriched with CD56 microbeads (Miltenyi Biotec) and cryopreserved in FBS with 10% v/v DMSO. After thawing, NK cells were washed with complete medium, stained with antibodies and Fixable Viability Dye eFluor 780 (Thermo Fisher) for 15 min at 4 °C in PBS, sorted as viable CD56^+ CD3^− cells, and rested in complete media overnight. […] Brefeldin A and Monensin (BD Biosciences) were added after a 1 h culture period. After an additional 5 h, the stimulation was stopped by centrifugation at 4 °C. Cells underwent surface staining, followed by fixation and intracellular staining using Inside Stain Kit (Miltenyi Biotec). Samples were analyzed by flow cytometry on an LSR Fortessa (BD Biosciences). Inhibition of NKG2A^+ NK cells and activation of NKG2C^+ NK cells was assessed by gating on the respective single-positive populations (Supplemental Fig. 14). Antibodies are listed in Supplemental Table 1: anti-human CD56 PE/Dazzle 594 (1:200 dilution), CD3 APC-eFluor 780 (1:50 dilution), anti-human CD159a (NKG2A) Biotin REAfinity (1:50 dilution), anti-human CD159c (NKG2C) PE REAfinity (1:100 dilution), anti-human CD107a (LAMP-1) Alexa Fluor 488 (1:400 dilution), anti-human IFN-γ PE-Vio 770 REAfinity (1:50 dilution), anti-human TNF-α Brilliant Violet 605 (1:50 dilution), anti-human CCL3 (MIP-1α) REAfinity (1:25 dilution).

HLA-E [1] = experiment: Prometheus differential scanning fluorimetry of HLA-E with peptide; format: binding, human; conditions: refolded HLA-E*01:03/β2M 9 μg, 50x peptide to MHC ratio, high sensitivity capillary, 1 °C per minute 20-95 °C, first inflection point; DMSO control 33.8
Experimental: Differential scanning fluorimetry (DSF) experiments were performed with a Prometheus NanoTemper NT.48 (Munich, Germany) to measure protein stability, using intrinsic tryptophan fluorescence.
For these experiments, refolded empty HLA-E was generated. Human β2M plus a poly-histidine tag and HLA-E*01:03 extracellular α1, α2, and α3 domains plus an AviTag biotinylation tag were separately codon optimized for E. coli and cloned into the bacterial expression vector pET28a. Inclusion bodies for HLA-E and β2M were made in BL21 E. coli. Inclusion bodies were purified, homogenized, and dissolved, including denaturation in 8 M urea solution. Before refolding, each IB was mixed with an equal volume of Gdn-Cl solution (6 M Guanidine HCl, 500 mM Tris, 2 mM EDTA, 100 mM NaCl) and incubated overnight at 37 °C. β2M was injected dropwise with a 27-gauge needle into refolding buffer (100 mM pH 8.3 Tris, 400 mM L-arginine hydrochloride, 2 mM EDTA, 0.5 mM oxidized glutathione, 5 mM reduced glutathione, 0.2 mM PMSF) and incubated, stirring gently, at 4 °C for 1 h, after which an equal mass of HLA-E heavy chain was similarly injected. This solution incubated at 4 °C overnight, followed by two days of dialysis in 10 mM Tris + 50 mM NaCl. Protein was concentrated in 10 kDa molecular weight cutoff centrifugal concentrators and purified by size exclusion chromatography on an AKTAPURE FPLC (GE Healthcare, Chicago IL), using an S200 column followed by a S75 column.
Individual DSF reactions were set up with 9 μg of MHC and 100×, 50×, or 10× peptide to MHC ratio by molarity (peptides from GenScript). The final reaction volume was 20 μL and reaction mixtures were incubated at room temperature for 20–30 min.
Prometheus excitation power was set such that raw fluorescence counts were between 8000–15000 for each sample. Samples were heated at 1 °C per minute, from 20–95 °C. DSF measurements were taken in duplicate with high-sensitivity and standard capillaries. Melting temperatures were similar for a given peptide across conditions, and representative data from 50x ratio in high sensitivity capillary are presented. A secondary inflection point around 60 °C in most melts is consistent with melting of β2M[76]. […]
Supplemental Figure 9. Differential scanning fluorimetry data generated via Prometheus NanoTemper for predicted peptides with HLA-E. a) Raw 350/330 nm ratios and first derivative for samples. The second inflection point is consistent with β2M unfolding. b) Summary of Tm values for the first inflection point called by Prometheus software for these samples. […]

NKG2A-/NKG2C+ NK cells = experiment: NK cell activation assay with peptide-pulsed K562/HLA-E cells, NKG2A-/NKG2C+ NK cells; format: cell-based, human; conditions: K562/HLA-E target cells, 300 µM peptide ([…] µM BFAR263-271), E:T 2:1, 6 h; degranulation (CD107a), IFN-γ, TNF, CCL3; flow cytometry
Experimental: (§3) We hypothesized that our predicted proteome-derived peptides could affect NK cell activation through interactions with CD94/NKG2A and CD94/NKG2C. To investigate, we performed cell-based activation assays on primary NK cells (Fig. 4A). NK cells were co-incubated with peptide-pulsed HLA-E-expressing K562 cells, as described previously. The parental K562 human myelogenous leukemia cell line is a typical target to measure NK cell cytotoxicity and activation, allowing for assessment of both NKG2A-mediated inhibition and NKG2C-mediated activation. […] NKG2A^-/NKG2C^- NK cells served as internal control as these should be unaffected by peptide-HLA-E complexes (Supplemental Fig. 12).
as §1, §2

NKG2A+/NKG2C- NK cells = experiment: NK cell activation assay with peptide-pulsed K562/HLA-E cells, NKG2A+/NKG2C- NK cells; format: cell-based, human; conditions: K562/HLA-E target cells, 300 µM peptide ([…] µM BFAR263-271), E:T 2:1, 6 h; degranulation (CD107a), IFN-γ, TNF, CCL3; flow cytometry
Experimental: as §3, §1, §2

HLA-E [2] = experiment: HLA-E surface stabilization assay with RMA-S/HLA-E cells; format: cell-based, human; conditions: peptide 3-300 µM (Fig. 3: 30 µM) in OptiMEM, 16 h, 37 °C, anti-HLA-E 3D12, flow cytometry, n = 4 replicate experiments
Experimental: To probe top-predicted proteome-derived peptides (Tables 2 and 3) for HLA-E binding, we assessed their ability to stabilize surface-expressed HLA-E on RMA-S/HLA-E cells, a TAP-deficient mouse cell line engineered to express HLA-E and human β2M (Fig. 3 and Supplemental Fig. 8)[47].
Fig. 3 Peptide stabilization of HLA-E surface expression. Assessment of peptide-HLA-E binding via HLA-E surface stabilization assay with RMA-S/HLA-E cells incubated with 30 μM peptide. HLA-E expression is detected with an anti-HLA-E antibody. Measurements from n = 4 replicate experiments are shown, with solid black lines indicating mean values. […] Source data are provided as a Source Data file.
RMA-S/HLA-E cells were incubated with serial dilutions of peptides (3–300 µM, Genscript) in OptiMEM (ThermoFisher) for 16 h at 37 °C. Cells were washed with PBS, stained for HLA-E (Clone 3D12, Biolegend, 1:200 dilution) for 15 min at room temperature and analyzed by flow cytometry (analysis in FlowJo version 10). Peptide UBAC2_275-279 was ordered as a 5mer peptide (WNRLF) given the similarity with other WN peptides and hypothesis of a truncated peptide binding in the HLA-E groove. […] Measurements from replicate experiments are plotted in Fig. 3 and Supplemental Fig. 8.

CD94/NKG2A = biological target: T1, CD94/NKG2A (Homo sapiens, UniProt P26715+Q13241); experiment: Steady-state SPR of peptide-HLA-E single chain trimers with CD94/NKG2A; format: binding; conditions: SPR with CD94/NKG2A and CD94/NKG2C, Fig. 5B; taken as lower stability of the peptide-HLA-E complex
T1 construct: The C-terminus of human NKG2A or NKG2C ectodomain was connected via a GGSGGS linker to human CD94 ectodomain; AviTag biotinylation tag (C); poly-histidine tag (C); made in house; host or cells: baculovirus, High Five (Hi5) insect cells
Experimental: Specifically, we measured CD94/NKG2A and CD94/NKG2C affinity for HLA-E complexed with three sets of peptides. […] Third, we included […] peptide as a positive control.
Steady-state surface plasmon resonance experiments were performed with a Biacore T200 instrument. CD94/NKG2x in HBS-EP+ buffer was injected as analyte in a concentration range of 0.1 μM to 102.4 μM and flow rate of 10 μL/min at 25 °C. Data was fit with Prism 9.4 (GraphPad Software Inc; San Diego CA) to a “one site, specific binding” model. Sensorgrams are included in Supplemental Fig. 13.
For investigating WN peptides, biotinylated pMHC was immobilized at approximately 400 Response Units (RU) on a Series S SA sensor chip (Cytiva). […] CD94/NKG2A was injected followed by CD94/NKG2C.
For investigating human-derived peptides, Series S CM5 chips (Cytiva) were coupled to neutravidin and utilized. Biotinylated pMHC was immobilized at approximately 400 RU. On one chip, […] CD94/NKG2A was injected followed by CD94/NKG2C. On a second chip, PISD55-63 HLA-E SCT, AKAP6_388-396 HLA-E SCT, GTF3C5_293-301 HLA-E SCT, and reference HLA-DR401 were immobilized. CD94/NKG2C was injected followed by CD94/NKG2A. Rmax, fit values were calculated by Biacore software. Rmax, theoretical values were calculated using the analyte/ligand mass ratio (0.66) multiplied by the amount of ligand coupled to the chip.

T1 sequence (Q13241 whole entry, looked up, the tested form may be a part): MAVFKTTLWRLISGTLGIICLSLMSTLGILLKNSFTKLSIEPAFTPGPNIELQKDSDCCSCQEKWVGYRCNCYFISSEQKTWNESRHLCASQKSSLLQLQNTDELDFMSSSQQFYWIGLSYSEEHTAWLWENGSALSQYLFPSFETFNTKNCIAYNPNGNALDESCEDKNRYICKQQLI
T1 sequence (P26715 whole entry, looked up, the tested form may be a part): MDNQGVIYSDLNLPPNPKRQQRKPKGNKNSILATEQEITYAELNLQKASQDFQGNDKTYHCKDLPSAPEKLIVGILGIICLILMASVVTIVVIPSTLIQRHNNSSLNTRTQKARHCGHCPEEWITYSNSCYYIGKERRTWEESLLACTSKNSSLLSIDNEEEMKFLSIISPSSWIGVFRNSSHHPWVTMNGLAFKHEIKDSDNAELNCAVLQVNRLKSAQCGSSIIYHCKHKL

Sequence	NKG2C-mediated NK cell activation (NKG2C+ NK cells)	Tm (HLA-E [1]) [°C]	activating effects on NKG2C+ cells (NKG2A-/NKG2C+ NK cells)	inhibitory effects on NKG2A+ cells (NKG2A+/NKG2C- NK cells)	stabilization of HLA-E surface expression (HLA-E [2])	average percent CD107a+ (NKG2C+ NK cells; NKG2C+ NK cells with RMA-S/HLA-E cells, Fig. 4B, stated in author rebuttal) [%]	maximal response units (Rmax) compared to theoretical maximum (CD94/NKG2A)
QMPSRSLLF [CREB3L1_419-427]	activation similar to the weaker positive control ([…]) or between the two positive controls	46.2	strong activating effects	more moderate inhibitory effects	strong binding that is weaker than VMAPRTLFL; also recorded: strong stabilization		
TGPWRSLWI [GTF3C5_293-301, human peptide from General transcription factor 3C polypeptide 5]	detectable activation, though below both positive control examples		clear activating effects	minimal inhibitory effects	weak but detectable stabilization	11.1	lower maximal values compared to the theoretical maximum
VLPHRTQFL [UL120_72-80, Merlin, CMV peptide from Membrane protein UL120, strain Merlin]	activation similar to the weaker positive control ([…]) or between the two positive controls	45.7	strong activating effects	strong inhibitory effects	strong binding that is weaker than VMAPRTLFL; also recorded: strong HLA-E binding		
